doi:10.1101/2021.05.10.443505v2 (biorxiv, 2021)
pKd: −log10 of the molar value.

Target: T1, human ID2 protein (Homo sapiens, UniProt Q02363)
T1 sequence (Q02363 1-134): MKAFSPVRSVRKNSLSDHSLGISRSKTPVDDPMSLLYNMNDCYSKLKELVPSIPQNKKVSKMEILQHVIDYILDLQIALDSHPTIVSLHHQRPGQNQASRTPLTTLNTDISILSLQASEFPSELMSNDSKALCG
Test: SPR
Type: binding

pKd: 6.89
Structure (SMILES): O=C(CC1(O)C(=O)N(Cc2cccc(Cl)c2)c2ccccc21)c1ccccn1 (stereo not shown) [AK-778-XXMU]
